{"source": "patent US11026956B2", "about": "“Cancer drug and uses” (Health Clinics Limited, priority 2013, dated 2021)", "key": {"MCF-7 cells": {"tested_on": "MCF-7 cells", "assay": "Percentage of survival of MCF-7 cells by LDH content", "format": "cell-based", "details": "72 hours; for percent of survival of MCF-7 cells, administered more than once: re-dosing at 24 and 48 h; for percent of survival of MCF-7 cells, administered more than once / effect on percent of survival of MCF-7 cells, dosed singly: without Artesunate; for effect on percent of survival of MCF-7 cells, dosed singly: single dose; for survival of MCF-7 cells, therapeutic administered individually: dosed once or multiple times (re-dosing at 24 and 48 h)", "procedure": "To assess the effect of Artesunate in combination with several other therapeutics, MCF-7 cells were treated with different concentrations of these therapeutic compounds either once or through repeated dosing. The percentage of survival was calculated based on the LDH contents of cells. 1. 100 ul of cells suspension […]) were added to each well (3000 cells/well), with a total of 5 plates were seeded. […] [table] The appropriate volume of 100% Ethanol was added to Artesunate to obtain a concentration of 10 mg/ml. This was further diluted in 100% Ethanol to 1 mg/ml (1:10). 4 ug/ml was obtained by diluting 1 mg/ml (1:250) in complete medium. Further double decreasing dilutions were carried out in complete medium containing 0.4% Ethanol. […] This was further diluted in complete medium to 16 mM (1:6.25). Further double decreasing dilutions were carried out in complete medium. 2 mg of MMC were resuspended in 4 ml of sterile water to obtain a stock at 0.5 mg/ml. A second dilution of MMC was carried out by diluting 0.5 mg/ml in complete medium to 0.1 mg/ml (1:5). 4. Once the treatments were ready, 50 ul/well of Artesunate was added to the plates. […] 5. 50 ul of complete medium at 0.4% Ethanol and 50 ul of just complete medium were added to the corresponding control wells already containing either 100 ul of cells (positive control) or just 100 ul of complete medium (background control) 6. 100 ul of MMC at 100 ug/ml was added to the corresponding wells already containing 100 ul of cells in complete medium as a negative control and finally, plates were placed in the incubator. […] Media was removed from the wells by using a multichannel pipette. Wells were washed with 200 ul/well of PBS previously warmed at 37° C. 100 ul of Titron 1× in PBS previously warmed at 37° C. were added to the wells. Subsequently, the plate was placed at 37° C. in the dark for 45 min. 50 ul from each well was transferred to a non sterile 96-well plate. 50 ul of LDH substrate were added to each well of the non sterile plate already containing 50 ul/well of lysed cells and the plates were then incubating at room temperature in the dark for 30 min. 50 ul of Stop solution was added to each well and then the plate was read at 492 nm. 8. After 48 h of cells treatment, one of the 2 plates that had been re-dosed after 24 h was re-dosed again (treatments were prepared as described above for re-dosing). One of the 2 plates that had been treated just once will remain as it was in the incubator. The remaining 2 plates were used to measure the % of survival by LDH after 48 h of single treatment and after re-dosing at 24 h (LDH assay was performed as described above). Day 3: LDH-72 h and LDH-Re-Dosing at 24 h and at 48 h After 72 h of cells treatment, there were just 2 plates left in the incubator. They were used to measure the of survival by LDH after 72 h of single treatment and after re-dosing at 24 h and 48 h (LDH assay was performed as described above)."}, "[1]": {"details": "compared with arteether and artemether; cited from earlier work"}, "[2]": {"details": "cited from earlier work"}, "metastatic breast cancer": {"tested_on": "metastatic breast cancer", "assay": "Case reports: patients with metastatic breast cancer (CAT scan, symptoms, survival)", "format": "in vivo, human", "details": "single patient", "excerpt": "A patient comprising a person was diagnosed by their physician with advanced metastatic breast cancer. The metastatic breast cancer consisted of tumors, including several found in both lungs. The physician prescribed a standard set of cancer therapeutics in an attempt to reduce or maintain the tumors. […] The physician placed the patient on a paliative care regime and provided the patient with several doses of the aromatase inhibitor, letrazole. […] The patient was next administered a treatment consisting of artemether at a dose of 40 mg OD, presented in a lipid filled capsule comprising tributyrin and G43.\nA patient comprising a person was diagnosed by their physician with extensive metastaic breast cancer. The patient presented with tumors in brain liver and lungs. The patient also presented with symptoms that included shortness of breath and a persistent cough. The patient informed the physician that they would not take part in a standard chemotherapy treatment protocol. The physician informed the patient that they would only live for about three months survival. The patient was instead administered artemether at a dose of 40 mg OD, presented as a lipid filled capsule comprising tributyrin and G43. As a result of the treatment, the symptoms the patient suffered from, including, shortness of breath and a persistent cough diminished over the weeks following treatment with arthemether. […]"}, "[3]": {"tested_on": "human leukemia HL60 cells", "details": "cited from earlier work"}, "[4]": {"tested_on": "human pancreatic cancer BxPC-3 cells", "details": "cited from earlier work"}, "[5]": {"tested_on": "human pancreatic cancer AsPC-1 cells", "details": "cited from earlier work"}, "[6]": {"tested_on": "ovarian cancer cell lines", "details": "cited from earlier work"}}, "data": [{"smiles": "Oc1ccc(C=Cc2cc(O)cc(O)c2)cc1", "note": "[Resveratrol]", "values": [{"measurement": "percent of survival of MCF-7 cells, administered more than once", "setting": "MCF-7 cells", "value": "decreasing marginally"}, {"measurement": "effect on percent of survival of MCF-7 cells, dosed singly", "setting": "MCF-7 cells", "value": "only minimal effect"}]}, {"smiles": "C[C@H]1[C@@H](OCc2ccc(C(=O)O)cc2)O[C@@H]2O[C@@]3(C)CC[C@H]4[C@H](C)CC[C@@H]1[C@@]24OO3", "note": "[Artelinic acid]", "values": [{"measurement": "rate of neurotoxicity", "setting": "[1]", "value": "lower rate of neurotoxicity than the related artemisin derivatives arteether and artemether"}]}, {"smiles": "C[C@@H]1CC[C@H]2[C@@H](C)C(=O)O[C@@H]3O[C@@]4(C)CC[C@@H]1[C@]32OO4", "note": "[artemisinin]", "values": [{"measurement": "bioavailability", "setting": "[2]", "value": "poor bioavailability"}]}, {"smiles": "N#Cc1ccc(C(c2ccc(C#N)cc2)n2cncn2)cc1", "note": "[letrazole]", "values": [{"measurement": "tumor progression (CAT scan)", "setting": "metastatic breast cancer; after several doses of the aromatase inhibitor on palliative care", "value": "progressing"}, {"measurement": "growth of one tumor in a lung", "setting": "metastatic breast cancer; in three months, after several doses of the aromatase inhibitor", "value": 50, "unit": "%"}]}, {"smiles": "CO[C@H]1O[C@@H]2O[C@@]3(C)CC[C@H]4[C@H](C)CC[C@@H]([C@H]1C)[C@@]24OO3", "note": "[artemether, (+)-(3-alpha,5a-beta,6-beta,8a-beta, 9-alpha,12-beta,12aR)-decahydro-10-methoxy-3,6,9-trimethyl-3,12-epoxy-12H-pyrano(4,3-j)-1,2-benzodioxepin]", "values": [{"measurement": "cytotoxicity (apoptosis, G2 cell cycle arrest)", "setting": "[3]", "value": "dose- and time-dependent cytotoxicity"}, {"measurement": "cytotoxicity (apoptosis, G2 cell cycle arrest)", "setting": "[4]", "value": "dose- and time-dependent cytotoxicity"}, {"measurement": "cytotoxicity (apoptosis, G2 cell cycle arrest)", "setting": "[5]", "value": "dose- and time-dependent cytotoxicity"}, {"measurement": "cytotoxicity (apoptosis, G2 cell cycle arrest)", "setting": "[6]", "value": "dose- and time-dependent cytotoxicity"}]}, {"smiles": "C[C@H]1[C@H](OC(=O)CCC(=O)O)O[C@@H]2O[C@@]3(C)CC[C@H]4[C@H](C)CC[C@@H]1[C@@]24OO3", "note": "[Artesunate]", "values": [{"measurement": "survival of MCF-7 cells, therapeutic administered individually", "setting": "MCF-7 cells", "value": "decreased the survival of MCF-7 cells"}]}, {"smiles": "CCCC(=O)[O-].[Na+]", "note": "[Sodium Butyrate]", "values": [{"measurement": "survival of MCF-7 cells, therapeutic administered individually", "setting": "MCF-7 cells", "value": "decreased the survival of MCF-7 cells"}]}, {"smiles": "O=c1c(-c2ccc(O)cc2)coc2cc(O)ccc12", "note": "[Daidzein]", "values": [{"measurement": "percent of survival of MCF-7 cells, administered more than once", "setting": "MCF-7 cells", "value": "decreasing marginally"}, {"measurement": "effect on percent of survival of MCF-7 cells, dosed singly", "setting": "MCF-7 cells", "value": "only minimal effect"}]}, {"smiles": "Oc1ccc([C@H]2COc3cc(O)ccc3C2)cc1", "note": "[Equol]", "values": [{"measurement": "percent of survival of MCF-7 cells, administered more than once", "setting": "MCF-7 cells", "value": "decreasing marginally"}, {"measurement": "effect on percent of survival of MCF-7 cells, dosed singly", "setting": "MCF-7 cells", "value": "only minimal effect"}]}]}
